Test results as given in ChEMBL document CHEMBL1201862, “PubChem BioAssay data set” (2004).
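Where inhibition never reached the appropriate level, the endpoint shown equals the highest concentration tested. Otherwise, values were interpolated linearly from a five-concentration, 48-hour dose response in 96-well plates. GI50: concentration for 50% inhibition of growth.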 The source made the active and inactive calls. No stated cut-off is given here; in the data, active = GI50 up to about 1.1 µM and inactive = higher.

Columns and labels:
Assay in all cases: DTP human tumour cell line panel, 48 h
CCRF-CEM = test system: CCRF-CEM
TK-10 = test system: TK-10
UACC-62 = test system: UACC-62
M14 = test system: M14
OVCAR-5 = test system: OVCAR-5
ACHN = test system: ACHN
NCI/ADR-RES = test system: NCI/ADR-RES
SN12C = test system: SN12C
SK-MEL-5 = test system: SK-MEL-5
BT-549 = test system: BT-549
SK-MEL-2 = test system: SK-MEL-2
KM12 = test system: KM12
NCI-H23 = test system: NCI-H23
U-251 = test system: U-251
HCC 2998 = test system: HCC 2998
MDA-N = test system: MDA-N
SNB-75 = test system: SNB-75
SNB-19 = test system: SNB-19
786-0 = test system: 786-0
SF-295 = test system: SF-295

Measured: GI50

O=[N+]([O-])C(Cl)=C/C(=C(\Cl)SCc1ccccc1)[N+](=O)[O-]
inactive: CCRF-CEM 3.24 µM | TK-10 23.7 µM | UACC-62 28.9 µM | M14 20 µM | OVCAR-5 23.7 µM | ACHN 17 µM | NCI/ADR-RES 36.7 µM | SN12C 18.2 µM | SK-MEL-5 20.8 µM | BT-549 14.7 µM | SK-MEL-2 21.5 µM | KM12 29.5 µM | NCI-H23 37.5 µM | U-251 16.7 µM | HCC 2998 30.6 µM | MDA-N 23.4 µM | SNB-75 49.5 µM | SNB-19 38.4 µM | 786-0 30.5 µM | SF-295 28.6 µM

COC(=O)C1=C(C)N2[C@H](C(=O)O)CO[C@@]2(C)[C@H](C(=O)OC)[C@H]1c1cccc([N+](=O)[O-])c1
inactive: CCRF-CEM > 100 µM | TK-10 > 100 µM | UACC-62 > 100 µM | M14 > 100 µM | OVCAR-5 > 100 µM | ACHN > 100 µM | NCI/ADR-RES > 100 µM | SN12C > 100 µM | SK-MEL-5 > 100 µM | BT-549 > 100 µM | SK-MEL-2 > 100 µM | KM12 > 100 µM | NCI-H23 > 100 µM | U-251 > 100 µM | HCC 2998 > 100 µM | MDA-N > 100 µM | SNB-75 > 100 µM | SNB-19 > 100 µM | 786-0 > 100 µM | SF-295 > 100 µM
